From patent publication US20240270762A1, “PENICILLIN-BINDING PROTEIN INHIBITORS” (priority 2021, published 2024)
Converted amounts (≈) assume the structure as drawn.

Key:
[1] = molecular target: T1, PBP3 from Acinetobacter baumannii (ATCC 19606) (Acinetobacter baumannii, UniProt A0ABX6CK25); test: Bocillin-FL fluorescence polarization competition binding, A. baumannii PBP3; settings: fluorescence polarization competition binding assay using Bocillin-FL; read-out: A. baumannii PBP3 Potency
T1 sequence (A0ABX6CK25 64-610): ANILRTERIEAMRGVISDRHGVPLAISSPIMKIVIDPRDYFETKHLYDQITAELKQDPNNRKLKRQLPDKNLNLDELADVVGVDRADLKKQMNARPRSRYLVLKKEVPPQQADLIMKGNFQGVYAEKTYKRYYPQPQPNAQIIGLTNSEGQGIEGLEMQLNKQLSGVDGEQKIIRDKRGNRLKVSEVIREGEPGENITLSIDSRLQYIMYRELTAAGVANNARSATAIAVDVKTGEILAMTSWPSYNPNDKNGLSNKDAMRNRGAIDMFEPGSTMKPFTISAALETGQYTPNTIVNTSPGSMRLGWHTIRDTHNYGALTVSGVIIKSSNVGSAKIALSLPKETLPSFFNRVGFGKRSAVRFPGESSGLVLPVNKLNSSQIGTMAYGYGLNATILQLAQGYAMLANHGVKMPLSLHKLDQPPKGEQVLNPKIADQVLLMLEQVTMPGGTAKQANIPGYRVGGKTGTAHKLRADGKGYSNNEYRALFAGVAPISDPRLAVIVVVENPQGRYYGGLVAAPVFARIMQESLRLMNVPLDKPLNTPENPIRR
How it was run: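 Purified PBPs pre-incubated with inhibitor (E. coli PBP3 1.5 μM, 30 min; P. aeruginosa PBP3 0.75 μM, A. baumannii PBP1a 1 μM and PBP3 0.2 μM, 15 min), then Bocillin-FL 0.1 μM (0.05 μM for PBP1a) added; FP read up to 60 min. EC50 = concentration halving bound Bocillin-FL.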

P. aeruginosa ATCC 35151 = test: microbe, parasite or virus in culture; assay type: cell-based; settings: Pseudomonas aeruginosa, ATCC35151, read-out: Minimum inhibitory concentration, P. aeruginosa ATCC 35151
P. aeruginosa CDC-0095 = test: microbe, parasite or virus in culture; assay type: cell-based; settings: Pseudomonas aeruginosa, CDC0095, read-out: Minimum inhibitory concentration, P. aeruginosa CDC-0095
A. baumannii 1258916 = test: microbe, parasite or virus in culture; assay type: cell-based, Acinetobacter baumannii; settings: Acinetobacter baumannii, 1258916, read-out: MIC, A. baumannii 1258916
A. baumannii CDC-0045 = test: microbe, parasite or virus in culture; assay type: cell-based; settings: Acinetobacter baumannii, CDC0045, read-out: MIC, A. baumannii CDC-0045
[2] = system: B. thailandensis ATCC 700388; test: microbe, parasite or virus in culture; assay type: cell-based; settings: Burkholderia thailandensis, ATCC700388, read-out: Minimum inhibitory concentration (MIC), B. thailandensis ATCC 700388
N. gonorrhoeae MS11 = test: Liquid broth MIC in Fastidious broth; settings: Neisseria gonorrhoeae, MS11, read-out: Minimum Inhibitory Concentration, MS11
N. gonorrhoeae WHO L = test: Liquid broth MIC in Fastidious broth; settings: Neisseria gonorrhoeae, read-out: Minimum Inhibitory Concentration, WHO L
N. gonorrhoeae WHO Q = test: Liquid broth MIC in Fastidious broth; settings: Neisseria gonorrhoeae, read-out: Minimum Inhibitory Concentration, WHO Q
N. gonorrhoeae CDC-0197 = test: Liquid broth MIC in Fastidious broth; settings: Neisseria gonorrhoeae, CDC0197, read-out: Minimum Inhibitory Concentration, CDC-0197

## O=C(NCCN1CCN(C(=O)NC(C(=O)N[C@H]2Cc3ccc(F)c(C(=O)O)c3OB2O)c2cc(F)c(O)c(O)c2Cl)C1=O)Nc1cccc(O)c1 (stereo partly drawn) [Example 249, (3R)-3-(2-(2-chloro-5-fluoro-3,4-dihydroxyphenyl)-2-(3-(2-(3-(3-hydroxyphenyl)ureido)ethyl)-2-oxoimidazolidine-1-carboxamido)acetamido)-7-fluoro-2-hydroxy-3,4-dihydro-2H-benzo[e][1,2]oxaborinine-8-carboxylic acid]
[1]
  IC50: < 10 µM
P. aeruginosa ATCC 35151
  MIC: < 1 mg/L
P. aeruginosa CDC-0095
  MIC: 32 to 64 mg/L (≈ 43.7 to 87.3 µM)
A. baumannii 1258916
  MIC: < 1 mg/L
A. baumannii CDC-0045
  MIC: < 1 mg/L
[2]
  MIC: 2 to 4 mg/L (≈ 2.73 to 5.46 µM)
N. gonorrhoeae MS11
  MIC: 16 to 32 mg/L (≈ 21.8 to 43.7 µM)
N. gonorrhoeae WHO L
  MIC: > 64 mg/L
N. gonorrhoeae WHO Q
  MIC: > 64 mg/L
N. gonorrhoeae CDC-0197
  MIC: > 64 mg/L

## O=C(NCCN1CCN(C(=O)NC(C(=O)N[C@H]2Cc3ccc(F)c(C(=O)O)c3OB2O)c2cc(F)c(O)c(O)c2Cl)C1=O)Nc1ccncc1 (stereo partly drawn) [Example 250, (3R)-3-(2-(2-chloro-5-fluoro-3,4-dihydroxyphenyl)-2-(2-oxo-3-(2-(3-(pyridin-4-yl)ureido)ethyl)imidazolidine-1-carboxamido)acetamido)-7-fluoro-2-hydroxy-3,4-dihydro-2H-benzo[e][1,2]oxaborinine-8-carboxylic acid]
[1]
  IC50: < 10 µM
P. aeruginosa ATCC 35151
  MIC: < 1 mg/L
P. aeruginosa CDC-0095
  MIC: 32 to 64 mg/L (≈ 44.6 to 89.2 µM)
A. baumannii 1258916
  MIC: < 1 mg/L
A. baumannii CDC-0045
  MIC: < 1 mg/L
[2]
  MIC: > 128 mg/L
N. gonorrhoeae MS11
  MIC: 16 to 32 mg/L (≈ 22.3 to 44.6 µM)
N. gonorrhoeae WHO L
  MIC: > 64 mg/L
N. gonorrhoeae WHO Q
  MIC: > 64 mg/L
N. gonorrhoeae CDC-0197
  MIC: > 64 mg/L

## O=C(NCCN1CCN(C(=O)NC(C(=O)N[C@H]2Cc3ccc(F)c(C(=O)O)c3OB2O)c2cc(F)c(O)c(O)c2Cl)C1=O)Nc1cccnc1 (stereo partly drawn) [Example 251, (3R)-3-(2-(2-chloro-5-fluoro-3,4-dihydroxyphenyl)-2-(2-oxo-3-(2-(3-(pyridin-3-yl)ureido)ethyl)imidazolidine-1-carboxamido)acetamido)-7-fluoro-2-hydroxy-3,4-dihydro-2H-benzo[e][1,2]oxaborinine-8-carboxylic acid]
[1]
  IC50: < 10 µM
P. aeruginosa ATCC 35151
  MIC: < 1 mg/L
P. aeruginosa CDC-0095
  MIC: 8 to 16 mg/L (≈ 11.1 to 22.3 µM)
A. baumannii 1258916
  MIC: < 1 mg/L
A. baumannii CDC-0045
  MIC: < 1 mg/L
[2]
  MIC: < 1 mg/L
N. gonorrhoeae MS11
  MIC: 16 to 32 mg/L (≈ 22.3 to 44.6 µM)
N. gonorrhoeae WHO L
  MIC: > 64 mg/L
N. gonorrhoeae WHO Q
  MIC: > 64 mg/L
N. gonorrhoeae CDC-0197
  MIC: > 64 mg/L

## O=C(NCCCN1CCN(C(=O)N[C@H](C(=O)N[C@H]2Cc3ccc(F)c(C(=O)O)c3OB2O)c2cc(F)c(O)c(O)c2Cl)C1=O)c1ccccc1 [Example 252, (R)-3-((S)-2-(3-(3-benzamidopropyl)-2-oxoimidazolidine-1-carboxamido)-2-(2-chloro-5-fluoro-3,4-dihydroxyphenyl)acetamido)-7-fluoro-2-hydroxy-3,4-dihydro-2H-benzo[e][1,2]oxaborinine-8-carboxylic acid]
[1]
  IC50: 50 to 250 µM
P. aeruginosa ATCC 35151
  MIC: 2 to 4 mg/L (≈ 2.79 to 5.59 µM)
P. aeruginosa CDC-0095
  MIC: > 128 mg/L
A. baumannii 1258916
  MIC: > 128 mg/L
A. baumannii CDC-0045
  MIC: > 128 mg/L
[2]
  MIC: > 128 mg/L
N. gonorrhoeae MS11
  MIC: > 64 mg/L
N. gonorrhoeae WHO L
  MIC: > 64 mg/L
N. gonorrhoeae WHO Q
  MIC: > 64 mg/L
N. gonorrhoeae CDC-0197
  MIC: > 64 mg/L

## O=C(NCCCN1CCN(C(=O)N[C@@H](C(=O)N[C@H]2Cc3ccc(F)c(C(=O)O)c3OB2O)c2cc(F)c(O)c(O)c2Cl)C1=O)c1ccccc1 [Example 253, (R)-3-((R)-2-(3-(3-benzamidopropyl)-2-oxoimidazolidine-1-carboxamido)-2-(2-chloro-5-fluoro-3,4-dihydroxyphenyl)acetamido)-7-fluoro-2-hydroxy-3,4-dihydro-2H-benzo[e][1,2]oxaborinine-8-carboxylic acid]
[1]
  IC50: < 10 µM
P. aeruginosa ATCC 35151
  MIC: < 1 mg/L
P. aeruginosa CDC-0095
  MIC: 2 to 4 mg/L (≈ 2.79 to 5.59 µM)
A. baumannii 1258916
  MIC: < 1 mg/L
A. baumannii CDC-0045
  MIC: < 1 mg/L
[2]
  MIC: 2 to 4 mg/L (≈ 2.79 to 5.59 µM)
N. gonorrhoeae MS11
  MIC: 16 to 32 mg/L (≈ 22.4 to 44.7 µM)
N. gonorrhoeae WHO L
  MIC: > 64 mg/L
N. gonorrhoeae WHO Q
  MIC: 16 to 32 mg/L (≈ 22.4 to 44.7 µM)
N. gonorrhoeae CDC-0197
  MIC: > 64 mg/L

## O=C(NCCCN1CCN(C(=O)N[C@H](C(=O)N[C@H]2Cc3ccc(F)c(C(=O)O)c3OB2O)c2cc(F)c(O)c(O)c2Cl)C1=O)c1cccc(O)c1 [Example 254, (R)-3-((S)-2-(2-chloro-5-fluoro-3,4-dihydroxyphenyl)-2-(3-(3-(3-hydroxybenzamido)propyl)-2-oxoimidazolidine-1-carboxamido)acetamido)-7-fluoro-2-hydroxy-3,4-dihydro-2H-benzo[e][1,2]oxaborinine-8-carboxylic acid]
[1]
  IC50: 10 to 50 µM
P. aeruginosa ATCC 35151
  MIC: < 1 mg/L
P. aeruginosa CDC-0095
  MIC: > 128 mg/L
A. baumannii 1258916
  MIC: > 128 mg/L
A. baumannii CDC-0045
  MIC: > 128 mg/L
[2]
  MIC: > 128 mg/L
N. gonorrhoeae MS11
  MIC: > 64 mg/L
N. gonorrhoeae WHO L
  MIC: > 64 mg/L
N. gonorrhoeae WHO Q
  MIC: > 64 mg/L
N. gonorrhoeae CDC-0197
  MIC: > 64 mg/L

## O=C(NCCCN1CCN(C(=O)N[C@@H](C(=O)N[C@H]2Cc3ccc(F)c(C(=O)O)c3OB2O)c2cc(F)c(O)c(O)c2Cl)C1=O)c1cccc(O)c1 [Example 255, (R)-3-((R)-2-(2-chloro-5-fluoro-3,4-dihydroxyphenyl)-2-(3-(3-(3-hydroxybenzamido)propyl)-2-oxoimidazolidine-1-carboxamido)acetamido)-7-fluoro-2-hydroxy-3,4-dihydro-2H-benzo[e][1,2]oxaborinine-8-carboxylic acid]
[1]
  IC50: < 10 µM
P. aeruginosa ATCC 35151
  MIC: < 1 mg/L
P. aeruginosa CDC-0095
  MIC: 2 to 4 mg/L (≈ 2.73 to 5.47 µM)
A. baumannii 1258916
  MIC: < 1 mg/L
A. baumannii CDC-0045
  MIC: < 1 mg/L
[2]
  MIC: < 1 mg/L
N. gonorrhoeae MS11
  MIC: 16 to 32 mg/L (≈ 21.9 to 43.7 µM)
N. gonorrhoeae WHO L
  MIC: > 64 mg/L
N. gonorrhoeae WHO Q
  MIC: 16 to 32 mg/L (≈ 21.9 to 43.7 µM)
N. gonorrhoeae CDC-0197
  MIC: 16 to 32 mg/L (≈ 21.9 to 43.7 µM)

## O=C(NCCCN1CCN(C(=O)NC(C(=O)N[C@H]2Cc3ccc(F)c(C(=O)O)c3OB2O)c2cc(F)c(O)c(O)c2Cl)C1=O)c1ccncc1 (stereo partly drawn) [Example 256, (3R)-3-(2-(2-chloro-5-fluoro-3,4-dihydroxyphenyl)-2-(3-(3-(isonicotinamido)propyl)-2-oxoimidazolidine-1-carboxamido)acetamido)-7-fluoro-2-hydroxy-3,4-dihydro-2H-benzo[e][1,2]oxaborinine-8-carboxylic acid]
[1]
  IC50: < 10 µM
P. aeruginosa ATCC 35151
  MIC: < 1 mg/L
P. aeruginosa CDC-0095
  MIC: 2 to 4 mg/L (≈ 2.79 to 5.58 µM)
A. baumannii 1258916
  MIC: < 1 mg/L
A. baumannii CDC-0045
  MIC: < 1 mg/L
[2]
  MIC: < 1 mg/L
N. gonorrhoeae MS11
  MIC: > 64 mg/L
N. gonorrhoeae WHO L
  MIC: > 64 mg/L
N. gonorrhoeae WHO Q
  MIC: > 64 mg/L
N. gonorrhoeae CDC-0197
  MIC: > 64 mg/L

## O=C(NCCCN1CCN(C(=O)NC(C(=O)N[C@H]2Cc3ccc(F)c(C(=O)O)c3OB2O)c2cc(F)c(O)c(O)c2Cl)C1=O)c1nccs1 (stereo partly drawn) [Example 257, (3R)-3-(2-(2-chloro-5-fluoro-3,4-dihydroxyphenyl)-2-(2-oxo-3-(3-(thiazole-2-carboxamido)propyl)imidazolidine-1-carboxamido)acetamido)-7-fluoro-2-hydroxy-3,4-dihydro-2H-benzo[e][1,2]oxaborinine-8-carboxylic acid]
[1]
  IC50: < 10 µM
P. aeruginosa ATCC 35151
  MIC: < 1 mg/L
P. aeruginosa CDC-0095
  MIC: 2 to 4 mg/L (≈ 2.77 to 5.53 µM)
A. baumannii 1258916
  MIC: < 1 mg/L
A. baumannii CDC-0045
  MIC: < 1 mg/L
[2]
  MIC: < 1 mg/L
N. gonorrhoeae MS11
  MIC: 16 to 32 mg/L (≈ 22.1 to 44.3 µM)
N. gonorrhoeae WHO L
  MIC: > 64 mg/L
N. gonorrhoeae WHO Q
  MIC: > 64 mg/L
N. gonorrhoeae CDC-0197
  MIC: > 64 mg/L

## O=C(NCCCN1CCN(C(=O)N[C@@H](C(=O)N[C@H]2Cc3ccc(F)c(C(=O)O)c3OB2O)c2cc(F)c(O)c(O)c2Cl)C1=O)Nc1cccc(O)c1 [Example 258, (R)-3-((R)-2-(2-chloro-5-fluoro-3,4-dihydroxyphenyl)-2-(3-(3-(3-(3-hydroxyphenyl)ureido)propyl)-2-oxoimidazolidine-1-carboxamido)acetamido)-7-fluoro-2-hydroxy-3,4-dihydro-2H-benzo[e][1,2]oxaborinine-8-carboxylic acid]
[1]
  IC50: < 10 µM
P. aeruginosa ATCC 35151
  MIC: < 1 mg/L
P. aeruginosa CDC-0095
  MIC: < 1 mg/L
A. baumannii 1258916
  MIC: < 1 mg/L
A. baumannii CDC-0045
  MIC: < 1 mg/L
[2]
  MIC: < 1 mg/L
N. gonorrhoeae MS11
  MIC: 16 to 32 mg/L (≈ 21.4 to 42.8 µM)
N. gonorrhoeae WHO L
  MIC: > 64 mg/L
N. gonorrhoeae WHO Q
  MIC: 16 to 32 mg/L (≈ 21.4 to 42.8 µM)
N. gonorrhoeae CDC-0197
  MIC: 16 to 32 mg/L (≈ 21.4 to 42.8 µM)
